In PubChem BioAssay (NCI):
Values joined by “and” are separate entries in the source; they are usually repeats but may differ in a detail not shown here. Identical values can stand only once.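 Where inhibition never reached the appropriate level, the endpoint shown equals the highest concentration tested. Otherwise, values were interpolated linearly from a five-concentration, 48-hour dose response in 96-well plates. GI50 = concentration required for 50% inhibition of growth. At the TGI there is no net growth.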

Assays:
Assay in all cases: NCI-60 cell line screen, 48 h
786-0 renal = system: 786-0 renal
A549 NSCLC = system: A549 NSCLC
DU-145 prostate = system: DU-145 prostate
NCI-H522 lung = system: NCI-H522 lung
OVCAR-5 ovarian = system: OVCAR-5 ovarian
RPMI-8226 leukemia = system: RPMI-8226 leukemia
RXF 393 renal = system: RXF 393 renal
SK-MEL-28 melanoma = system: SK-MEL-28 melanoma
SK-OV-3 ovarian = system: SK-OV-3 ovarian
SNB-19 CNS = system: SNB-19 CNS

SMILES	TGI (786-0 renal)	TGI (A549 NSCLC)	TGI (DU-145 prostate)	TGI (NCI-H522 lung)	TGI (OVCAR-5 ovarian)	TGI (RPMI-8226 leukemia)	TGI (RXF 393 renal)	TGI (SK-MEL-28 melanoma)	TGI (SK-OV-3 ovarian)	TGI (SNB-19 CNS)	GI50 (786-0 renal)	GI50 (A549 NSCLC)	GI50 (DU-145 prostate)	GI50 (NCI-H522 lung) [µM]	GI50 (OVCAR-5 ovarian) [µM]	GI50 (RPMI-8226 leukemia)	GI50 (RXF 393 renal)	GI50 (SK-MEL-28 melanoma) [µM]	GI50 (SK-OV-3 ovarian)	GI50 (SNB-19 CNS) [µM]
C[C@]12CCC3=NCCN3C1=CC[C@@H]1[C@@H]2CC[C@@]2(C)[C@H]1CC[C@]2(C)O	32.4 µM	> 100 µM	> 100 µM	> 100 µM	> 100 µM	70.8 µM	66.4 µM	99.6 µM	> 100 µM	> 100 µM										
C#Cc1cccc(NC(=O)C2CCCN(C(=O)CCl)C2)c1 (stereo not drawn)	> 82.5 µM	> 82.5 µM	> 82.5 µM	32.7 µM	> 82.5 µM	> 82.5 µM	> 82.5 µM	> 82.5 µM	> 82.5 µM	> 82.5 µM	> 82.5 µM	> 82.5 µM	> 82.5 µM	14.7	> 82.5	> 82.5 µM	> 82.5 µM	> 82.5	> 82.5 µM	> 82.5
O=C(OC[C@@H]1CO1)c1cccc2c(=O)c3ccccc3[nH]c12	2.69 µM	5.68 µM	1.29 µM	2.2 µM	4.17 µM	1.84 µM	0.515 µM	2.07 µM		5.51 µM	0.349 µM	0.468 µM	0.335 µM	0.421	0.474	0.33 µM	0.207 µM	0.396		0.505
CN(C)c1ccc(C2CC(C)(O)Oc3cc4c(cc32)OCO4)cc1 (stereo not drawn)	> 100 µM	> 100 µM	> 100 µM	> 100 µM	> 100 µM	47.6 µM	> 100 µM	> 100 µM	> 100 µM	> 100 µM										
COC(=O)[C@]1(C)CCC[C@]2(C)[C@@H]1CCC13C[C@@H](C=CO1)[C@@H](C)CC32O (stereo partly drawn)	> 100 µM	> 100 µM	43.5 µM	> 100 µM	> 100 µM	82 µM	> 100 µM	> 100 µM	> 100 µM	> 100 µM	89.5 µM	33.1 µM	19.9 µM	> 100	> 100	7.84 µM	66.8 µM	> 100	> 100 µM	> 100
N#CCC1(n2cc(-c3ncnc4[nH]ccc34)cn2)CN(C2CCN(C(=O)c3ccnc(C(F)(F)F)c3F)CC2)C1	> 100 µM	> 100 µM	> 100 µM	> 100 µM	> 100 µM	> 100 µM	> 100 µM	> 100 µM	> 100 µM	> 100 µM	> 100 µM	> 100 µM	> 100 µM	> 100	> 100	98.2 µM	28.2 µM	> 100	> 100 µM	> 100
NC(N)=N/N=C(/c1ccccc1)c1ccccc1F	21 µM	36.8 µM	16.6 µM	14.7 µM	33.8 µM	> 82.1 µM	13.9 µM	21.4 µM	37.9 µM	31.3 µM	4.58 µM	4.51 µM	3.56 µM	3.12	7.49	7.6 µM	3 µM	4.69	4.82 µM	4.19
Cc1nc2c(Br)cc(Br)cc2c(=O)n1-c1ccccc1NC1OCC(O)C(O)C1O (stereo not drawn)	> 100 µM and 32.6 µM	> 100 µM and 34.6 µM	> 100 µM and 46.3 µM	92.4 µM and 47.1 µM	> 100 µM	> 100 µM and 41.7 µM	> 100 µM and 49.2 µM	> 100 µM	> 100 µM	> 100 µM	45.1 µM and 13.6 µM	34.8 µM and 10.1 µM	44.9 µM and 19.2 µM			28.5 µM and 9.26 µM	33.2 µM and 12.5 µM		76.3 µM and 29.9 µM	
N#CCCN(CCC#N)c1ccc(C=Nc2ccc(F)cc2)cc1	> 100 µM	> 100 µM	> 100 µM	> 100 µM	> 100 µM	> 100 µM	> 100 µM	> 100 µM	> 100 µM	> 100 µM										
O=C(c1ccccc1)C(Br)C(Br)c1ccccc1 (stereo not drawn)	28.7 µM	39.2 µM	9.63 µM	2.62 µM	27.7 µM	8.11 µM	3.51 µM	13 µM	28.8 µM	25.7 µM	15.2 µM	18.3 µM	3.08 µM	1.18	14.5	3.44 µM	1.89 µM	3.59	15.3 µM	12.7
COc1cc(OC)cc(-c2ccc(-c3ccc(C(=N)N)cn3)s2)c1	3.72 µM	4.69 µM	3.22 µM	5.59 µM	3.13 µM	5.51 µM	3.34 µM	3.43 µM	26.2 µM	3.59 µM	1.98 µM	2.19 µM	1.79 µM	2.27	1.69	2.46 µM	1.83 µM	1.84	11.3 µM	1.8
O=c1nc2[nH]c3c(-c4n[nH]c(=O)[nH]c4=O)cccc3c2n[nH]1	> 100 µM	> 100 µM	> 100 µM	> 100 µM	> 100 µM	> 100 µM	> 100 µM	> 100 µM	> 100 µM	> 100 µM	> 100 µM	> 100 µM	> 100 µM	> 100	> 100	> 100 µM	> 100 µM	> 100	> 100 µM	> 100
CC1OC(OC2C(O[C@H]3CC[C@@]4(C)C(=CC[C@H]5[C@@H]6C[C@@H]7O[C@]8(CC[C@@H](C)CO8)[C@@H](C)[C@@H]7[C@@]6(C)CC[C@@H]54)C3)OC(CO)C(OC3OC(CO)C(O)C3O)C2O)C(O)C(O)C1O (stereo partly drawn)	1.34 µM and 0.464 µM	1.3 µM and 0.367 µM	2.26 µM and 2.15 µM	1.77 µM and 2.47 µM	1.53 µM and 2.59 µM	2.71 µM and 0.586 µM	1.83 µM and 0.962 µM	1.37 µM and 0.522 µM	1.76 µM and 2.55 µM	1.48 µM and 1.82 µM	0.221 µM	0.203 µM		1.23	1.32	0.212 µM	0.294 µM	0.21	1.29 µM	0.649
CCN(CC)CCOc1ccc2c(C)c(C(=O)OC)oc2c1C(=O)/C=C/c1ccc(OC)cc1	> 45.7 µM	40.6 µM	34.7 µM	15.2 µM	6.99 µM	4.42 µM	31.3 µM	11.2 µM	13.8 µM	13.8 µM	16.6 µM	17.6 µM	18.5 µM	4.3	2.32	1.58 µM	13.8 µM	2.89	4.12 µM	4.86
